Experimental data: the supplement of paper PMC10307832

Experiments:
Test in all cases: relative viability (nuclei count vs DMSO), 5 days (fraction); higher = more cells survive
[1] = compound: CC1=NN=C(O1)C2=NN=C(C=C2)N3CCC(CC3)OC4=C(C=CC(=C4)F)Cl + CCNC(=O)c1noc(-c2cc(C(C)C)c(O)cc2O)c1-c1ccc(CN2CCOCC2)cc1 [Luminespib] (partner 0.01 µM)
Summary of the method: (§1)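 Lung cancer cell lines in 1536-well plates were dosed by pin tool the day after seeding, either with one drug alone or with a fixed anchor-drug dose plus five library-drug doses (not always all listed) in √10 steps. After 5 days, cells were fixed and their nuclei stained in one step (final 0.05% Triton X-100, 1% formaldehyde, 1 ug/ml Hoechst), then counted on 4× images. Relative viability is the nuclei count in treated wells divided by that in vehicle wells. Values are medians of duplicate plates.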

[2] = compound: CC1=NN=C(O1)C2=NN=C(C=C2)N3CCC(CC3)OC4=C(C=CC(=C4)F)Cl + Nc1ncn([C@H]2C[C@H](O)[C@@H](CO)O2)c(=O)n1 [Decitabine] (partner 2 µM)
Summary of the method: as §1

Tosedostat + Dasatinib = compound: CC(C)C[C@@H](C(=O)N[C@H](C(=O)OC1CCCC1)c1ccccc1)[C@H](O)C(=O)NO [Tosedostat] + Cc1nc(Nc2ncc(C(=O)Nc3c(C)cccc3Cl)s2)cc(N2CCN(CCO)CC2)n1 [Dasatinib] (partner 0.075 µM)
Summary of the method: as §1

[3] = compound: CC1=NN=C(O1)C2=NN=C(C=C2)N3CCC(CC3)OC4=C(C=CC(=C4)F)Cl + Cc1nc(NC(=O)N2CCC[C@H]2C(N)=O)sc1-c1ccnc(C(C)(C)C(F)(F)F)c1 [Alpelisib] (partner 2 µM)
Summary of the method: as §1

## UMC-11
[1]; first compound 0.253 µM
  relative viability: 0.523
[1]; first compound 0.8 µM
  relative viability: 0.572
[1]; first compound 2.53 µM
  relative viability: 0.453
[1]; first compound 8 µM
  relative viability: 0.552
[2]; first compound 0.253 µM
  relative viability: 0.517
[2]; first compound 0.8 µM
  relative viability: 0.517
[2]; first compound 2.53 µM
  relative viability: 0.507
[2]; first compound 8 µM
  relative viability: 0.466
Tosedostat + Dasatinib; first compound 0.02 µM
  relative viability: 0.499
Tosedostat + Dasatinib; first compound 0.06325 µM
  relative viability: 0.454
Tosedostat + Dasatinib; first compound 0.2 µM
  relative viability: 0.453
Tosedostat + Dasatinib; first compound 0.6325 µM
  relative viability: 0.448
Tosedostat + Dasatinib; first compound 2 µM
  relative viability: 0.504
[3]; first compound 0.253 µM
  relative viability: 0.744
[3]; first compound 0.8 µM
  relative viability: 0.679
[3]; first compound 2.53 µM
  relative viability: 0.687
[3]; first compound 8 µM
  relative viability: 0.667
